This test has as its target T1, aromatase (CYP19) (Homo sapiens, UniProt P11511).
T1 construct: purchased BD Biosciences Inc. (U.S.A.)
T1 sequence (P11511 1-503): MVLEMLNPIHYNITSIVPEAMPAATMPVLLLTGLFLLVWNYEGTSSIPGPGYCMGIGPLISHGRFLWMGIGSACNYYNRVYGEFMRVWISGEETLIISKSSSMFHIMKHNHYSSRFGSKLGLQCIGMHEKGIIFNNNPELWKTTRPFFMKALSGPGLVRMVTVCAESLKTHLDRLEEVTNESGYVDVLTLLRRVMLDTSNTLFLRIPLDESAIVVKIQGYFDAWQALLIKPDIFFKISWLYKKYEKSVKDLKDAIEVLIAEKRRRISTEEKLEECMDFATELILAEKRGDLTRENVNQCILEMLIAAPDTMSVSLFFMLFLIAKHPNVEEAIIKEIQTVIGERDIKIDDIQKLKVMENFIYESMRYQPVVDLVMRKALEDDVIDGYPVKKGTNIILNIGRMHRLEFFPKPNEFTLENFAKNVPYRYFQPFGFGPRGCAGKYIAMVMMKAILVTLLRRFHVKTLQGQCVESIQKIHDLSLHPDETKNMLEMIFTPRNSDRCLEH
Nature of the test: Measurement of aromatase-inhibitory activity (fluorometric HFC formation, 96-well microplate, BD Biosciences reagents). As to conditions: for inhibition at 0.18 µM: concentration 0.18 μM; for inhibition at 0.18 µM / inhibition at 0.53 µM / inhibition at 1.6 µM / inhibition at 4.8 µM: average of three experiments, read-out: Inhibitory rate; for inhibition at 0.53 µM: concentration 0.53 μM; for inhibition at 1.6 µM: concentration 1.60 μM; for inhibition at 4.8 µM: concentration 4.80 μM; for IC50: text b76, components. Type of test: biochemical. The method, then:
That is, by using a 96-well microplate, after 144 μL of a previously prepared NADPH-producing system solution (NADPH-Cofactor Mix) and 6 μL of an extract solution of test samples were mixed, and incubated at 37° C. for 10 minutes. Then, 100 μL of a solution (Enzyme Substrate Mix) containing an enzyme and a substrate was mixed with the above mixture, and reacted at 37° C. for 30 minutes. Thereafter, 75 μL of a reaction-terminating solution was added to the above, and an amount of a formed HFC (7-hydroxy-4-trifluoromethyl coumarin) which is a metabolite of the substrate was obtained by measuring a fluorescent intensity at an excitation wavelength of 409 nm and a fluorescent wavelength of 538 nm using a plate reader ([…]luor, TECAN). Incidentally, 75 μL of stop solution was added to a blank after incubation for 10 minutes, in place of adding the solution of enzyme and substrate. Aromatase inhibitory rate was calculated by the formula 1.
Aromatase inhibitory rate (%)={1−[…]}×100 [Numerical formula 1]
A=(Absorbance after enzymatic reaction without test sample−Absorbance of blank thereof) B=(Absorbance after enzymatic reaction with each test sample−Absorbance of each blank thereof)
Also, to avoid a non-specific inhibitory action (for example, protein coagulation action due to tannin), a control protein which incidents to the reagent was added to the NADPH-producing system solution.
With regard to solution of test sample, the concentration was stepwisely diluted and an inhibitory rate at each concentration was obtained, and from the results, the concentration of 50% inhibition (IC50 value) was obtained according to the interpolation method.

Broadly, the IC50 is the concentration needed to halve the response being measured. Lower therefore signals higher potency. With `COc1ccc(-c2oc3c(CC=C(C)C)c(O[C@@H]4O[C@H](CO)[C@@H](O)[C@H](O)[C@H]4O)cc(O)c3c(=O)c2O[C@@H]2O[C@@H](C)[C@H](O)[C@@H](O)[C@H]2O)cc1` [Icariin, icariin], the inhibition at 0.18 µM is 30.4 ± 1.5%, the inhibition at 0.53 µM is 48.1 ± 6.9%, the inhibition at 1.6 µM came to 63.5 ± 12.6% and the inhibition at 4.8 µM came out at 67.7 ± 21.3%. Moreover, the 50% inhibitory concentration (IC50) turned out to be 754 nM.
Take `COc1cc(C2Oc3cc(C4Oc5cc(O)cc(O)c5C(=O)C4O)ccc3OC2CO)ccc1O` (centres unmarked) [Silybin, silybin]: the “aromatase-inhibitory activity, concentration dependency in words” value is on record as “concentration-dependent inhibitory activity”; the inhibition at 0.18 µM stood at 8.7 ± 9.3%; the inhibition at 0.53 µM is 12.4 ± 4.6%; the inhibition at 1.6 µM came to 20.6 ± 1.2%. In addition, the inhibition at 4.8 µM came out at 59.4 ± 7.1% and half-maximal inhibition (IC50) required 4860 nM.

The values are drawn from patent US20100255127A1, “AROMATASE INHIBITOR” (KRACIE PHARMA, LTD., priority 2007, published 2010).
